Laboratory results taken from patent publication US20200172483A1, “HETEROCYCLIC SMALL MOLECULE MODULATORS OF HUMAN STING” (Curadev Pharma Limited, priority 2017, published 2020).

Each molecule was assayed against T1, WT/R232 STING protein (Homo sapiens, UniProt Q86WV6, H232R) (assay: Luciferase reporter assay in HEK293T-hSTING-Luciferase cells (R232)). Details: 20 hr stimulation, EC50 range.
T1 construct: host or cells: HEK293T
T1 sequence (Q86WV6 whole entry H232R): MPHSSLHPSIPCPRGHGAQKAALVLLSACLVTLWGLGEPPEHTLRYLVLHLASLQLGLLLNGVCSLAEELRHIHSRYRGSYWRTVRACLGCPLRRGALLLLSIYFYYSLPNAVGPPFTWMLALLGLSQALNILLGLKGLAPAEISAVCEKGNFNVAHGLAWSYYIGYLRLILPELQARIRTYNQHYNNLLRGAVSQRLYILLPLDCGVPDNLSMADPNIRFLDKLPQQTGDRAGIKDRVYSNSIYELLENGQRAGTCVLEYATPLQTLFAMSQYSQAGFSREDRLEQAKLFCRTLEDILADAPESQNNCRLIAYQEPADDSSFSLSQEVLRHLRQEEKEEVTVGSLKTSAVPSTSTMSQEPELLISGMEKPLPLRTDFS
Format: cell-based
Procedure, shortened: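 Clonal HEK293T cells stably expressing human STING R232 plus an ISRE/ISG54-driven secreted luciferase reporter, stimulated with compounds for 20 hr. Luciferase in supernatant read by luminescence; activity given as fold-induction over baseline.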
In the case of `CC1(CO)C(=O)N(Cc2cc(F)cc(F)c2)c2cc(C(=O)NCc3ccc(F)cc3F)ccc21` (stereo not shown) [Example 176, N-(2,4-difluorobenzyl)-1-(3,5-difluorobenzyl)-3-(hydroxymethyl)-3-methyl-2-oxoindoline-6-carboxamide], the EC50 is reported as > 10 µM. For `Cc1ccc(-c2nc(CN3C(=O)C(C)(C)c4ccc(C(=O)NCc5c(F)cc(F)cc5F)cc43)c(C)o2)cc1` [Example 129, 3,3-dimethyl-1-((5-methyl-2-(p-tolyl)oxazol-4-yl)methyl)-2-oxo-N-(2,4,6-trifluorobenzyl)indoline-6-carboxamide], the EC50 was > 10 µM. `Cc1cccc(CNC(=O)c2ccc3c(c2)N(Cc2cc(F)cc(F)c2)C(=O)C3(C)C)n1` [Example 28, 1-(3,5-difluorobenzyl)-3,3-dimethyl-N-((6-methylpyridin-2-yl)methyl)-2-oxoindoline-6-carboxamide] was tested, and the EC50 was > 10 µM. `CC1(C)C(=O)N(Cc2c(F)cccc2Cl)c2cc(C(=O)NCc3cccs3)ccc21` [Example 7, 1-(2-chloro-6-fluorobenzyl)-3,3-dimethyl-2-oxo-N-(thiophen-2-ylmethyl)indoline-6-carboxamide] showed an EC50 of 1 to 10 µM. With `Cc1ccc(CNC(=O)c2ccc3c(n2)N(Cc2c(C)cccc2F)C(=O)C3(C)C)o1` [Example 195, 1-(2-fluoro-6-methylbenzyl)-3,3-dimethyl-N-((5-methylfuran-2-yl)methyl)-2-oxo-2,3-dihydro-1H-pyrrolo[2,3-b]pyridine-6-carboxamide] the EC50 was 1 to 10 µM. For `CC1(CCN)C(=O)N(Cc2cc(F)cc(F)c2)c2cc(C(=O)NCc3c(F)cc(F)cc3F)ccc21` (stereo not shown) [Example 173, 3-(2-aminoethyl)-1-(3,5-difluorobenzyl)-3-methyl-2-oxo-N-(2,4,6-trifluorobenzyl)indoline-6-carboxamide], the EC50 was > 10 µM. With `Cc1ccc(CNC(=O)c2cnc3c(c2)N(Cc2c(C)cccc2F)C(=O)C3(C)C)o1` [Example 196, 1-(2-fluoro-6-methylbenzyl)-3,3-dimethyl-N-((5-methylfuran-2-yl)methyl)-2-oxo-2,3-dihydro-1H-pyrrolo[3,2-b]pyridine-6-carboxamide] the EC50 was > 10 µM. `CC1(C)C(=O)N(Cc2cc(F)cc(F)c2)c2cc(C(=O)NCc3ccc(F)o3)ccc21` [Example 69, 1-(3,5-difluorobenzyl)-N-((5-fluorofuran-2-yl)methyl)-3,3-dimethyl-2-oxoindoline-6-carboxamide] was tested, and the EC50 was 1 to 10 µM. For `Cc1cccc(F)c1CN1C(=O)C(C)(C)c2ncc(C(=O)NCc3ccc(F)cc3)cc21` [Example 197, 1-(2-fluoro-6-methylbenzyl)-N-(4-fluorobenzyl)-3,3-dimethyl-2-oxo-2,3-dihydro-1H-pyrrolo[3,2-b]pyridine-6-carboxamide], the EC50 was > 10 µM. With `Cc1cc(CN2C(=O)C(C)(C)c3ccc(C(=O)NCc4c(F)cc(F)cc4F)cc32)on1` [Example 52, 3,3-dimethyl-1-((3-methylisoxazol-5-yl)methyl)-2-oxo-N-(2,4,6-trifluorobenzyl)indoline-6-carboxamide] the EC50 was > 10 µM. `CNC1(C)C(=O)N(Cc2cc(F)cc(F)c2)c2cc(C(=O)NCc3c(F)cc(F)cc3F)ccc21` (stereo not shown) [Example 145, 1-(3,5-Difluorobenzyl)-3-methyl-3-(methylamino)-2-oxo-N-(2,4,6-trifluorobenzyl)indoline-6-carboxamide] was tested, and the EC50 was 1 to 10 µM. In the case of `O=C(NCc1ccco1)c1ccc2c(c1)N(Cc1ccccc1F)C(=O)C2(F)F` [Example 133, 3.3-Difluoro-1-(2-fluorobenzyl)-N-(furan-2-ylmethyl)-2-oxoindoline-6-carboxamide], the EC50 is reported as > 10 µM. For `Cc1ccc(CNC(=O)c2ccc3c(c2)N(CC(=O)c2ccccc2)C(=O)C3(C)C)o1` [Example 62, 3,3-dimethyl-N-((5-methylfuran-2-yl)methyl)-2-oxo-1-(2-oxo-2-phenylethyl)indoline-6-carboxamide], the EC50 was > 10 µM. For `CC1(O)C(=O)N(Cc2ccccc2F)c2cc(C(=O)NCc3ccco3)ccc21` (stereo not shown) [Example 149, 1-(2-fluorobenzyl)-N-(furan-2-ylmethyl)-3-hydroxy-3-methyl-2-oxoindoline-6-carboxamide], the EC50 was > 10 µM. `CC1(C)C(=O)N(Cc2cccc(C(N)=O)c2F)c2cc(C(=O)NCc3c(F)cc(F)cc3F)ccc21` [Example 79, 1-(3-carbamoyl-2-fluorobenzyl)-3,3-dimethyl-2-oxo-N-(2,4,6-trifluorobenzyl)indoline-6-carboxamide] showed an EC50 of 1 to 10 µM. `CC1(N)C(=O)N(Cc2ccccc2F)c2cc(C(=O)NCc3c(F)cc(F)cc3F)ccc21` (stereo not shown) [Example 154, 3-amino-1-(2-fluorobenzyl)-3-methyl-2-oxo-N-(2,4,6-trifluorobenzyl)indoline-6-carboxamide] was tested, and the EC50 was > 10 µM. For `CC(C)C1(O)C(=O)N(Cc2c(F)cccc2Cl)c2cc(C(=O)NCc3c(F)cc(F)cc3F)ccc21` (stereo not shown) [Example 159, 1-(2-chloro-6-fluorobenzyl)-3-hydroxy-3-isopropyl-2-oxo-N-(2,4,6-trifluorobenzyl)indoline-6-carboxamide], the EC50 was > 10 µM. In the case of `CC1(C)C(=O)N(Cc2cc(F)cc(F)c2)c2cc(C(=O)NCc3ccc(F)cc3)cnc21` [Example 198, 1-(3,5-difluorobenzyl)-N-(4-fluorobenzyl)-3,3-dimethyl-2-oxo-2,3-dihydro-1H-pyrrolo[3,2-b]pyridine-6-carboxamide], the EC50 is reported as 1 to 10 µM. In the case of `Cc1cccc(C)c1CN1C(=O)C(C)(C)c2ccc(C(=O)NCc3c(F)cc(F)cc3F)cc21` [Example 110, 1-(2,6-dimethylbenzyl)-3,3-dimethyl-2-oxo-N-(2,4,6-trifluorobenzyl)indoline-6-carboxamide], the EC50 is reported as 1 to 10 µM. With `CC1(C)C(=O)N(Cc2ccc(F)cc2)c2nc(C(=O)NCc3c(F)cc(F)cc3F)ccc21` [Example 181, 1-(4-fluorobenzyl)-3,3-dimethyl-2-oxo-N-(2,4,6-trifluorobenzyl)-2,3-dihydro-1H-pyrrolo[2,3-b]pyridine-6-carboxamide] the EC50 was > 10 µM. In the case of `CC1(C)C(=O)N(Cc2c(F)cccc2Cl)c2cc(C(=O)NCc3cccc4c3OCO4)ccc21` [Example 87, N-(benzo[d][1,3]dioxol-4-ylmethyl)-1-(2-chloro-6-fluorobenzyl)-3,3-dimethyl-2-oxoindoline-6-carboxamide], the EC50 is reported as > 10 µM. With `CC1(C)C(=O)N(Cc2c(F)cccc2Cl)c2cc(C(=O)NCc3ccc4c(c3)CC(=O)N4)ccc21` [Example 95, 1-(2-chloro-6-fluorobenzyl)-3,3-dimethyl-2-oxo-N-((2-oxoindolin-5-yl)methyl)indoline-6-carboxamide] the EC50 was > 10 µM. `Cc1cc(CN2C(=O)C(C)(C)c3ccc(C(=O)NCc4c(F)cc(F)cc4F)cc32)cc(C(F)(F)F)c1` [Example 15, 3,3-dimethyl-1-(3-methyl-5-(trifluoromethyl)benzyl)-2-oxo-N-(2,4,6-trifluorobenzyl)indoline-6-carboxamide] was tested, and the EC50 was 1 to 10 µM. `CC1(F)C(=O)N(Cc2cc(F)cc(F)c2)c2cc(C(=O)NCc3c(F)cc(F)cc3F)ccc21` (stereo not shown) [Example 150, 1-(3,5-difluorobenzyl)-3-fluoro-3-methyl-2-oxo-N-(2,4,6-trifluorobenzyl)indoline-6-carboxamide] gave an EC50 of 1 to 10 µM. For `CC1(CC(=O)O)C(=O)N(Cc2cc(F)cc(F)c2)c2cc(C(=O)NCc3c(F)cc(F)cc3F)ccc21` (stereo not shown) [Example 169, 2-(1-(3,5-difluorobenzyl)-3-methyl-2-oxo-6-((2,4,6-trifluorobenzyl)carbamoyl)indolin-3-yl)acetic acid], the EC50 was > 10 µM.
